# According to patent US11504320B2, “Use of naturally glycosylated polyphenols as protective agents against the effects of ultraviolet irradiation” (MEDENA AG, priority 2017, dated 2022):
# “Also recorded” adds a separate entry of the source. Like-named read-outs stand apart in the source and are kept apart here. Marks after values point to notes of the source that are not given here.
# How the values were obtained:
# [1] = Broad band UVB and UVA absorption (SPF and UVA/UVB ratio) of sunscreens; format: physicochemical; settings: for SPF1 (sun protection factor corresponding to UVB absorption): 250 μM sunscreen; for SPF2 (sun protection factor corresponding to UVB absorption): 10% (weight %) sunscreen
# Protocol: For the invention as claimed data are presented in support of the surprising finding that definite naturally glycosylated polyphenols provide optimal photo-protection due to several reasons. They effectively absorb broad-band range of UV light in both spectrum regions: UVA and UVB. […] The efficacy of absorption is expressed as SPF (sun protection factor) for UVB range representing an integral of absorption within the whole UVB spectrum. The efficacy of absorption is also calculated as the UVA/UVB ratio showing that the ratio should be greater than 0.5 up to 1.2 in order to provide proper UVA protection.
# [2] = Photo stability: effect of solar simulating UV irradiation on SPF values of sunscreens; format: physicochemical; settings: for SPF after UV irradiation: fifty μM solution
# Protocol: Fifty μM sunscreen solutions placed in 3.5 cm Petri dishes were irradiated by 66% UVA+33% UVB for 1, 3, 20, and 40 min. Final doses of UV irradiation were 0.15, 0.45, 3.0, and 6.0 J/cm^2, respectively. * p<0.05 vs background SPF; ** p<0.01 vs background SPF.
# skin cells = experiment: Photo-chemo-toxicity (photo-chemo damage to skin cells); format: cell-based
# Description: This is true for quercetin and its alpha-glycosylated derivative, resveratrol, chalcone and many others. The phenomenon of photo-chemo-toxicity depends of UV-induced destruction of the parent molecule and cytotoxicity exerted by the formed metabolites.
# [3] = UV (66% UVA + 33% UVB) 0 J/cm^2
# [4] = UV (66% UVA + 33% UVB) 0.15 J/cm^2 (1 min)
# [5] = UV (66% UVA + 33% UVB) 0.45 J/cm^2 (3 min)
# [6] = UV (66% UVA + 33% UVB) 3.0 J/cm^2 (20 min)
# [7] = UV (66% UVA + 33% UVB) 6.0 J/cm^2 (40 min)
# [8] = solar simulated UVB+UVA irradiation
UVA/UVB (ratio of UVA to UVB absorption) [1],SPF1 (sun protection factor corresponding to UVB absorption) [1],SPF2 (sun protection factor corresponding to UVB absorption) [1],"SPF after UV irradiation [2, 3]","SPF after UV irradiation [2, 6]","SPF after UV irradiation [2, 7]","Photo-stability on exposure to UV irradiation (in words) [2, 8]",Molecule,further results
1.14,3.65 ± 0.12,5.41 ± 0.12,3.68 ± 0.15,3.69 ± 0.12,3.79 ± 0.12,easily destructed,O=c1cc(-c2ccccc2)oc2cc(O)c(O)c(O)c12 [Baicalein],"SPF after UV irradiation [2, 4]: 3.63 ± 0.12; SPF after UV irradiation [2, 5]: 3.62 ± 0.13"
,,,,,,,O=C(/C=C/c1ccccc1)c1ccccc1 [Ghalcone],"Photo-chemo-toxicity (in words) (skin cells; skin cells, UV): photo-chemo-toxicity"
1.70,2.63 ± 0.08,3.48 ± 0.12,,,,,O=c1c(O)c(-c2ccc(O)cc2O)oc2cc(O)cc(O)c12 [Morin],
,,,,,,photo-unstable,O=c1c(O)c(-c2ccc(O)c(O)c2)oc2cc(O)cc(O)c12 [Quercetin],"Photo-stability on exposure to UV irradiation (in words) ([2]; solar simulated UVB+UVA irradiation, listed as quercetin): unstable to exposure to UV irradiation; also recorded: easily destructed; Photo-chemo-toxicity (in words) (skin cells): photo-chemo-toxicity"
0.46,6.38 ± 0.12,8.39 ± 0.14,6.38 ± 0.12,6.38 ± 0.12,6.39 ± 0.12,,O=C1c2c(O)cc(O)cc2O[C@H](c2ccc(O)c(O)c2)[C@H]1O [Taxifolin],
0.59,8.25 ± 0.09,5.29 ± 0.09,8.25 ± 0.09,8.23 ± 0.12,8.26 ± 0.10,,C[C@@H]1O[C@@H](O[C@@H]2[C@@H](O)[C@H](OCCc3ccc(O)c(O)c3)O[C@H](CO)[C@H]2OC(=O)/C=C/c2ccc(O)c(O)c2)[C@H](O)[C@H](O)[C@H]1O [Verbascoside],
,,,,,,unstable to exposure to UV irradiation,O=c1c(O)c(-c2ccc(O)cc2)oc2cc(O)cc(O)c12 [kaempferol],"Photo-stability on exposure to UV irradiation (in words) ([2]; solar simulated UVB+UVA irradiation, listed as kaempherol): easily destructed"
,,,,,,easily destructed,O=c1c(O)c(-c2cc(O)c(O)c(O)c2)oc2cc(O)cc(O)c12 [myricetin],
,,,7.34 ± 0.18,3.61 ± 0.13,3.74 ± 0.17,,COc1cc(/C=C/C(=O)O)ccc1O [trans-Ferulic acid],"SPF after UV irradiation [2, 4]: 5.34 ± 0.09**; SPF after UV irradiation [2, 5]: 3.91 ± 0.11"
0.51,11.83 ± 0.12,6.79 ± 0.12,,,,,Leontopodic acids,
,,,,,,,alpha-glycosyl quercetin [alpha-glycosylated derivative],Photo-stability on exposure to UV irradiation (in words) [2]: photo-unstable; Photo-chemo-toxicity (in words) (skin cells): photo-chemo-toxicity

Molecule,UVA/UVB (ratio of UVA to UVB absorption) [1],SPF1 (sun protection factor corresponding to UVB absorption) [1],SPF2 (sun protection factor corresponding to UVB absorption) [1],"SPF after UV irradiation [2, 3]","SPF after UV irradiation [2, 6]","SPF after UV irradiation [2, 7]","Photo-stability on exposure to UV irradiation (in words) [2, 8]",further results
Oc1ccc(C=Cc2cc(O)cc(O)c2)cc1 [Resveratrol],,,,11.98 ± 0.11,4.93 ± 0.16,4.63 ± 0.10,unstable to exposure to UV irradiation; also recorded: easily destructed,"SPF after UV irradiation [2, 4]: 4.81 ± 0.20**; SPF after UV irradiation [2, 5]: 4.25 ± 0.20; Photo-chemo-toxicity (in words) (skin cells): photo-chemo-toxicity"
